Data: patent US6420348B1, “Pectic polysaccharides purified from Angelica gigas nakai and purification method and use as immunostimulating agent thereof” (Korea Institute of Science and Technology, priority 1997, dated 2002)

Tests used:
B16F10 melanoma = assay: host resistance model to syngeneic tumors; assay type: in vivo, BDF1 mice; conditions: for Viability: relative to non-treated mice; for Survival Animals (10 in total): survived 60 days
Description: The host resistance model to syngeneic tumors was prepared by the intraperitoneal transplantation of B16F10 melanoma to BDF1 mice. After transplantation, angelan was administered at a dose of 100 mg/kg/day while adriamicin was administered at a dose of 0.1 to 0.3 mg/kg. The survival rates of the treated mice was based on the viability of non-treated mice, and the number of the animals which survived for 60 days after the implantation, was counted.

B16F10 cancer cells = assay: direct cytotoxicity on cancer cells; assay type: cell-based; conditions: for survival number of treated cells as ratio to non-treated cells: 2 days
Description: Whether the anticancer effect of angelan came from specific mediation by cytotoxic T cells or from nonspecific mediation by macrophages and natural killer cells, was proven as follows. B16F10 cancer cells were treated with angelan and adriamicin at a dose of 0.3 to 30 μg/ml. After incubation for 2 days, the number of the survived cells was countered. The survival number of the treated cells was expressed as a ratio compared with the number of the non-treated cells.

[1] = system: B cell-depleted cell group (T cells); assay: mitogenicity comparison, 3H-thymidine incorporation; assay type: cell-based, mice; conditions: 5 μg/ml
Excerpt: (§1) In this example, the action mode of angelan was compared with those of other lymphocyte mitogens in three different lymphocyte groups. Lipopolysaccharide (LPS) was employed to induce the proliferation of B cell while phytohemagglutinin (PHA) and concanavalin A (Con A) were used as T cell mitogens. As a comitogen, that is, in order to induce both T-cells and B-cells to proliferate, pokeweed mitogen (PWM) was used.
(§2) Angelan was given to three different cell groups: total cell group including T- and B-cells, T cell-depleted cell group, and B cell-depleted cell group. Each cell groups were treated with angelan or one of LPS, PWM, Con A and PHA. After incubation, lymphocyte proliferation was measured by the incorporation of 3H-thymidine into the cellular DNA.

[2] = system: T cell-depleted cell group (B cells); assay: as above; assay type: cell-based, mice; conditions: for Proliferation B cells: 5 μg/ml; for mitogenicity (in words): B cell-enriched group
Excerpt: as §1, §2

[3] = system: total cell group including T- and B-cells; assay: as above; assay type: cell-based, mice; conditions: 5 μg/ml
Excerpt: as §1, §2

COc1cccc2c1C(=O)c1c(O)c3c(c(O)c1C2=O)C[C@@](O)(C(=O)CO)C[C@@H]3O[C@H]1C[C@H](N)[C@H](O)[C@H](C)O1 [Adriamicin]
Viability (B16F10 melanoma; adriamicin 0.1 mg/kg): 195% | Survival Animals (10 in total) (B16F10 melanoma; adriamicin 0.1 mg/kg): 0 | Viability (B16F10 melanoma; adriamicin 0.3 mg/kg): >240% | Survival Animals (10 in total) (B16F10 melanoma; adriamicin 0.3 mg/kg): 2 | cytotoxicity on cancer cells (in words) (B16F10 cancer cells): showed cytotoxicity on cancer cells | survival number of treated cells as ratio to non-treated cells (B16F10 cancer cells; 0.3 μg/ml): 56 | survival number of treated cells as ratio to non-treated cells (B16F10 cancer cells; 1 μg/ml): 29 | survival number of treated cells as ratio to non-treated cells (B16F10 cancer cells; 3 μg/ml): 9 | survival number of treated cells as ratio to non-treated cells (B16F10 cancer cells; 10 μg/ml): 0 | survival number of treated cells as ratio to non-treated cells (B16F10 cancer cells; 30 μg/ml): 0

Lipopolysaccharide [LPS]
Proliferation T cells [1]: 869 cpm/200,000 cells | Proliferation B cells [2]: 11550 cpm/200,000 cells | mitogenicity (in words) [2]: had an effect | Proliferation B/T cells [3]: 11665 cpm/200,000 cells

concanavalin A [Con A]
Proliferation T cells [1]: 3929 cpm/200,000 cells | Proliferation B cells [2]: 6566 cpm/200,000 cells | Proliferation B/T cells [3]: 6014 cpm/200,000 cells

phytohemagglutinin [PHA]
Proliferation T cells [1]: 3127 cpm/200,000 cells | Proliferation B cells [2]: 446 cpm/200,000 cells | Proliferation B/T cells [3]: 1049 cpm/200,000 cells

pokeweed mitogen [PWM]
Proliferation T cells [1]: 12171 cpm/200,000 cells | Proliferation B cells [2]: 358 cpm/200,000 cells | mitogenicity (in words) [2]: had an effect | Proliferation B/T cells [3]: 10212 cpm/200,000 cells
